# Laboratory results as given in ChEMBL document CHEMBL1201862, “PubChem BioAssay data set” (2004).
#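 Test compounds were applied to cells in 96-well plates for 48 hours at 5 doses. GI50 = concentration required for 50% inhibition of growth.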 The source made the active and inactive calls. Rule as the data show it: active = GI50 up to about 1.1 µM and inactive = higher.
# How the values were obtained:
# Test in all cases: DTP human tumour cell line panel, 48 h
# HL-60 = system: HL-60
# CAKI-1 = system: CAKI-1
# SF-295 = system: SF-295
# SK-MEL-28 = system: SK-MEL-28
# TK-10 = system: TK-10
# U-251 = system: U-251
# UACC-62 = system: UACC-62
# EKVX = system: EKVX
# NCI-H522 = system: NCI-H522
# SN12C = system: SN12C
# SW-620 = system: SW-620
# SNB-75 = system: SNB-75
# K562 = system: K562
# RXF 393 = system: RXF 393
# OVCAR-5 = system: OVCAR-5
# OVCAR-4 = system: OVCAR-4
# NCI/ADR-RES = system: NCI/ADR-RES
# HT-29 = system: HT-29
# A549 = system: A549
# HCC 2998 = system: HCC 2998
Structure (SMILES),GI50 (HL-60),GI50 (CAKI-1),GI50 (SF-295),GI50 (SK-MEL-28),GI50 (TK-10),GI50 (U-251),GI50 (UACC-62),GI50 (EKVX),GI50 (NCI-H522),GI50 (SN12C),GI50 (SW-620),GI50 (SNB-75),GI50 (K562),GI50 (RXF 393),GI50 (OVCAR-5),GI50 (OVCAR-4),GI50 (NCI/ADR-RES),GI50 (HT-29),GI50 (A549),GI50 (HCC 2998)
COc1cccc(C2C(C(=O)O)=C(CO)Oc3cc4c(cc32)OCO4)c1OC (centres undefined),> 100 µM (inactive),> 100 µM (inactive),> 100 µM (inactive),> 100 µM (inactive),> 100 µM (inactive),> 100 µM (inactive),> 100 µM (inactive),> 100 µM (inactive),> 100 µM (inactive),> 100 µM (inactive),> 100 µM (inactive),> 100 µM (inactive),> 100 µM (inactive),–,–,–,–,–,–,–
CC(C)(C)[Si](C)(C)OCC1OC(n2cnc3c(N)ncnc32)CC1OS(C)(=O)=O (centres undefined),64.9 µM (inactive),> 100 µM (inactive),> 100 µM (inactive),> 100 µM (inactive),42 µM (inactive),> 100 µM (inactive),42.1 µM (inactive),–,–,> 100 µM (inactive),> 100 µM (inactive),–,> 100 µM (inactive),25.6 µM (inactive),89.1 µM (inactive),> 100 µM (inactive),> 100 µM (inactive),> 100 µM (inactive),–,–
CC(=O)OC(C)(C)/C=C/C(=O)[C@](C)(O)[C@H]1[C@H](O)C[C@@]2(C)[C@@H]3CC=C4[C@@H](C[C@H](O)C(=O)C4(C)C)[C@]3(CO)C(=O)C[C@]12C [CUCURBITACIN A],0.335 µM (active),0.243 µM (active),0.314 µM (active),0.132 µM (active),0.179 µM (active),0.233 µM (active),0.543 µM (active),0.364 µM (active),0.288 µM (active),0.448 µM (active),0.367 µM (active),0.131 µM (active),0.445 µM (active),0.208 µM (active),0.955 µM (active),0.348 µM (active),–,0.308 µM (active),0.391 µM (active),0.35 µM (active)
NC1=C(C(=O)O)C(=O)C(Nc2c(O)cccc2C(=O)O)=CC1=O,> 100 µM (inactive),> 100 µM (inactive),43 µM (inactive),0.942 µM (active),> 100 µM (inactive),> 100 µM (inactive),60 µM (inactive),> 100 µM (inactive),> 100 µM (inactive),> 100 µM (inactive),> 100 µM (inactive),> 100 µM (inactive),> 100 µM (inactive),31.6 µM (inactive),> 100 µM (inactive),> 100 µM (inactive),–,> 100 µM (inactive),> 100 µM (inactive),31.6 µM (inactive)
CC1=C(C)[C@@]2(C)O[C@@]2(C)O[C@@]2(C)O[C@@]12C,–,> 100 µM (inactive),> 100 µM (inactive),> 100 µM (inactive),> 100 µM (inactive),> 100 µM (inactive),> 100 µM (inactive),> 100 µM (inactive),> 100 µM (inactive),> 100 µM (inactive),–,> 100 µM (inactive),> 100 µM (inactive),–,> 100 µM (inactive),> 100 µM (inactive),> 100 µM (inactive),> 100 µM (inactive),> 100 µM (inactive),–
Cc1cc(S(=O)(=O)Nc2nc(Nc3ccccc3)n[nH]2)c(SSc2cc(Cl)c(C)cc2S(=O)(=O)Nc2nc(Nc3ccccc3)n[nH]2)cc1Cl,25.1 µM (inactive),90.4 µM (inactive),> 100 µM (inactive),> 100 µM (inactive),90.8 µM (inactive),61.4 µM (inactive),> 100 µM (inactive),> 100 µM (inactive),–,> 100 µM (inactive),> 100 µM (inactive),> 100 µM (inactive),32.6 µM (inactive),> 10 µM (inactive),> 100 µM (inactive),> 100 µM (inactive),> 100 µM (inactive),98.2 µM (inactive),> 100 µM (inactive),–
COC(=S)OC1CC(n2cnc3c(N)ncnc32)OC1CO[Si](C)(C)C(C)(C)C (centres undefined),> 100 µM (inactive),> 10 µM (inactive),17.1 µM (inactive),28.8 µM (inactive),33.3 µM (inactive),14.3 µM (inactive),10.6 µM (inactive),–,–,20.4 µM (inactive),28.6 µM (inactive),–,2.75 µM (inactive),12.1 µM (inactive),20.6 µM (inactive),16.6 µM (inactive),22.4 µM (inactive),16.5 µM (inactive),–,–
O=C(OCc1ccccc1)C(Cc1ccccc1)N(Cc1ccccc1)Cc1ccccc1 (centres undefined),36.7 µM (inactive),> 100 µM (inactive),> 100 µM (inactive),> 100 µM (inactive),> 100 µM (inactive),27.7 µM (inactive),80 µM (inactive),> 100 µM (inactive),25.7 µM (inactive),53 µM (inactive),> 100 µM (inactive),16.5 µM (inactive),14.4 µM (inactive),46.9 µM (inactive),> 100 µM (inactive),28.8 µM (inactive),–,> 100 µM (inactive),65.9 µM (inactive),35.7 µM (inactive)
